Data reported in patent US10100088B2, “Glycopeptide derivatives for the preservation and protection of biological materials and microorganisms” (TFCHEM, priority 2014, dated 2018).
Entries after “also recorded” stand apart in the source; their conditions may differ. Like-named read-outs stand apart in the source and are kept apart here.

Assays:
[1] = system: human neonatal skin fibroblasts (CCD-27SK, ATCC CRL-1475); assay: Starvation (serum deprivation) stress, neutral red uptake viability; type: cell-based; settings: for preservative/protective effect on skin fibroblasts (in words): starvation medium; for viability at 5000 µg/mL: Homo sapiens, CCD-27Sk, read-out: Percentage of viability
Method: (§1) Induced stresses were performed as follow: Starvation
(§2) The neutral red uptake assay was used for the determination of cell viability. This assay is based on the ability of viable cells to incorporate and bind the supravital dye neutral red in its lysosomes. So, only the viable cells are dyed. At different times after the stress assay (T0), the plates were incubated with neutral red solution for 3.5 hours. The cells are subsequently washed, the dye is extracted in each well and the absorbance is read using a spectrophotometer.
(§3) For sampling, 1 mL of DMEM (without phenol red indicator) with neutral red (OD=0.110) was added to the cells for 3.5 hours (37° C., 10% CO2). After incubation, the medium was removed, two washes of PBS were realized and 1 mL of extraction solution (absolute ethanol 49%, ultrapure water 49%, glacial acetic acid 2%) was added. Plates were placed 15 minutes on rotary shaker in the dark before reading OD at 540 nm.
(§4) The OD540 nm average value of positive control was considered as 100% of viability.
(§5) The percentage of viability for each assay was calculated as follow: % viability assay=(OD540 nm of tested solution−blank)*100/(OD540 nm of positive control−blank).

[2] = Comparative stability towards basic conditions (NaOD in D2O), 1H NMR; type: physicochemical
Method: In a first set of experiments (experiments 1 to 7 in table 9), X (10 mg, 1.72 10^−2 mmol) was reacted with 2 to 8 equivalents of NaOD in a total volume of 355 μL of deuterium oxide ([X]=4.8 10^−2 mmol·mL^−1) during 2 h 30 before being acidified with 1M DCl in D2O. To be sure that all compounds in solution are in their acidic form, the equivalents of DCl are adjusted to 3 more equivalents of DCl than the amount required to neutralize the solution (nDCl=nNaOD+3). The volume was adjusted to 544 μL with deuterium oxide.
In a second set of experiments (experiments 8 to 14 in table 9), 17 (10 mg, 1.66 10^−2 mmol) was reacted with 2 to 8 equivalents of NaOD in a total volume of 343 μL of deuterium oxide ([17]=4.8 10^−2 mmol·mL^−1) during 2 h 30 before being acidified with 1M DCl in D2O. To be sure that all compounds in solution are in their acidic form, the equivalents of DCl are adjusted to 3 more equivalents of DCl than the amount required to neutralize the solution (nDCl=nNaOD+3). The volume was adjusted to 526 μL with deuterium oxide.
^1H NMR analyses were performed on each experiment. It is why experiments were realized in deuterium oxide and using 1M NaOD in D2O as base and 1M DCl in D2O as acid.
^1H NMR allows indeed the determination of the amount of compound X1 formed, by comparison between the integration corresponding to the methylene group of the lysine side chain connected to the nitrogen atom in X (CH2NGP) (3.3 ppm) and the integrationof the same methylene group in X1 (CH2Lys hydrolyzed) (3.0 ppm).
To confirm the structure of compounds X1 and X2, resulting from hydrolysis of X, the following experiment was realized, in which X (10 mg, 1.72 10^−2 mmol) was reacted with 8 equivalents of NaOD in a total volume of 355 μL of deuterium oxide ([X]=4.8 10^−2 mmol·mL^−1) during 3 days before being acidified with 1M DCl in D2O. In these conditions, almost the totality of compound X is hydrolyzed, the percentage of hydrolysis of compound X being 85% as determined by ^1H NMR as evidence in table 11.

[3] = system: human nasal epithelial cells (RPMI2650, ATCC CCL-30); assay: Starvation (serum deprivation) stress, neutral red uptake viability; type: cell-based; settings: for viability at 10000 µg/mL: Homo sapiens, 10 mg/mL, read-out: Percentage of viability
Method: as §1, §2, §3, §4, §5

[4] = system: human neonatal skin fibroblasts; assay: Oxidative stress (H2O2), neutral red uptake viability; type: cell-based; settings: for viability at 5000 µg/mL / viability at 10000 µg/mL / viability at 15000 µg/mL: Homo sapiens, Skin fibroblast, read-out: Percentage of viability following oxidative stress; for viability at 5000 µg/mL: 5 mg/mL; for viability at 10000 µg/mL: 10 mg/mL; for viability at 15000 µg/mL: 15 mg/mL
Method: as §1
Then oxidative stress was performed as follow: 0.2 ml of solution at 500 μM of H2O2 was added in wells except for negative control where 0.2 ml of culture medium were added.
as §2, §3, §5

[5] = system: human neonatal skin fibroblasts; assay: UV stress (11 J/cm^2), neutral red uptake viability; type: cell-based; settings: for viability at 5000 µg/mL / viability at 10000 µg/mL / viability at 15000 µg/mL: Homo sapiens, Skin fibroblast, light or radiation study, read-out: Percentage of viability following UV stress (11 J/cm^2); for viability at 5000 µg/mL: 5 mg/mL; for viability at 10000 µg/mL: 10 mg/mL; for viability at 15000 µg/mL: 15 mg/mL
Method: as §2, §3, §5

[6] = D4 after serum deprivation, 10 mg/mL, positive control with 5% FBS (Table 3)
[7] = D8 after serum deprivation, 10 mg/mL, positive control with 5% FBS (Table 3)
[8] = D 1 after serum deprivation, 5 mg/mL (Table 2)
[9] = D 4 after serum deprivation, 5 mg/mL (Table 2)
[10] = D 7 after serum deprivation, 5 mg/mL (Table 2)

In the case of `Cl.Cl.N[C@@H](CCCCNCC(F)(F)C1(O)O[C@H](CO)[C@H](O)[C@H](O)[C@H]1O)C(=O)O` (stereo partly shown) [Compound 44], the Percentage of viability [1, 6] is reported as 111 ± 2.9%, the Percentage of viability [1, 7] is reported as 102 ± 1.3% and the “preservative/protective effect on skin fibroblasts (in words)” value [1] is reported as “significant preservative/protective effect”.

In the case of `C[C@H](NC(=O)[C@@H](N)CCCCNCC(F)(F)C1(O)O[C@H](CO)[C@H](O)[C@H](O)[C@H]1O)C(=O)N1CCC[C@H]1C(=O)O.Cl.Cl` (stereo partly shown) [Compound 34], the Percentage of viability [1, 6] is reported as 103 ± 1%, the Percentage of viability [1, 7] is reported as 103 ± 2% and the “preservative/protective effect on skin fibroblasts (in words)” value [1] is reported as “significant preservative/protective effect”.

In the case of `C[C@H](NC(=O)[C@H](C)NC(=O)[C@@H](N)CCCNCC(F)(F)C1(O)O[C@H](CO)[C@H](O)[C@H](O)[C@H]1O)C(=O)O.Cl.Cl` (stereo partly shown) [Compound 30], the Percentage of viability [1, 6] is reported as 92 ± 1.2%, the Percentage of viability [1, 7] is reported as 74 ± 0.5% and the “preservative/protective effect on skin fibroblasts (in words)” value [1] is reported as “significant preservative/protective effect”.

With `C[C@H](NC(=O)[C@H](C)NC(=O)[C@@H](N)CCCCNC(=O)C(F)(F)[C@]1(O)O[C@H](CO)[C@H](O)[C@H](O)[C@H]1O)C(=O)O` [Compound X] the “% hydrolyzed” value ([2]; 2 eq NaOD, 2 h 30, D2O) was 2.0%, the “stability towards basic conditions (in words)” value ([2]; 2 to 8 eq NaOD, 2 h 30, 1H NMR) was “degradation; also recorded: sensitive to basic medium” and the “% hydrolyzed” value ([2]; 3 eq NaOD, 2 h 30, D2O) was 4.8%. The “% hydrolyzed” value ([2]; 4 eq NaOD, 2 h 30, D2O) was 13.0%, the “% hydrolyzed” value ([2]; 5 eq NaOD, 2 h 30, D2O) was 16.0% and the “% hydrolyzed” value ([2]; 6 eq NaOD, 2 h 30, D2O) was 19.0%. The “% hydrolyzed” value ([2]; 7 eq NaOD, 2 h 30, D2O) was 20.6%, the “% hydrolyzed” value ([2]; 8 eq NaOD, 2 h 30, D2O) was 22.2% and the “% hydrolyzed” value ([2]; 8 eq NaOD, 2 h 30, D2O, listed as compound X) was 22%. For the same compound, the “% hydrolyzed” value ([2]; Control, 0 eq NaOD) was 0.5%, the “% hydrolysis” value ([2]; Experiment A, 0 eq NaOD (Table 11)) was 0.5% and the “% hydrolysis” value ([2]; Experiment B, 8 eq NaOD, 3 days, D2O) was 85%.

Work on `CC(=O)O.CC(=O)O.C[C@H](NC(=O)[C@H](C)NC(=O)[C@@H](N)CCCCNCC(F)(F)C1(O)O[C@H](CO)[C@H](O)[C@H](O)[C@H]1O)C(=O)O` (stereo partly shown) [Compound 20] yielded a Percentage of viability [1, 8] of 87%, a Percentage of viability [1, 9] of 63% and a Percentage of viability [1, 10] of 50%. The “preservative/protective effect on skin fibroblasts (in words)” value [1] was “significant preservative/protective effect”.

For `C[C@H](N)C(=O)N[C@@H](CCCCNCC(F)(F)C1(O)O[C@H](CO)[C@H](O)[C@H](O)[C@H]1O)C(=O)N[C@@H](C)C(=O)O.Cl.Cl` (stereo partly shown) [Compound 38], the Percentage of viability [1, 6] was 101 ± 3%, the Percentage of viability [1, 7] was 88 ± 3% and the “preservative/protective effect on skin fibroblasts (in words)” value [1] was “significant preservative/protective effect”.

For `C[C@H](NC(=O)CNC(=O)[C@@H](N)CCCCNCC(F)(F)C1(O)O[C@H](CO)[C@H](O)[C@H](O)[C@H]1O)C(=O)O.Cl.Cl` (stereo partly shown) [Compound 28], the Percentage of viability [1, 6] was 109 ± 2.05%, the Percentage of viability [1, 7] was 108 ± 3.40% and the “preservative/protective effect on skin fibroblasts (in words)” value [1] was “significant preservative/protective effect”.

In the case of `C[C@H](NC(=O)[C@@H](N)CCCCNCC(F)(F)C1(O)O[C@H](CO)[C@H](O)[C@H](O)[C@H]1O)C(=O)NCC(=O)O.Cl.Cl` (stereo partly shown) [Compound 26], the Percentage of viability [1, 6] is reported as 89 ± 1.21%, the Percentage of viability [1, 7] is reported as 64 ± 2.78% and the “preservative/protective effect on skin fibroblasts (in words)” value [1] is reported as “significant preservative/protective effect”.

With `Cl.Cl.N[C@@H](CCCCNCC(F)(F)C1(O)O[C@H](CO)[C@H](O)[C@H](O)[C@H]1O)C(=O)NCC(=O)NCC(=O)O` (stereo partly shown) [Compound 24] the Percentage of viability [1, 6] was 99 ± 3.35%, the Percentage of viability [1, 7] was 95 ± 1.60% and the “preservative/protective effect on skin fibroblasts (in words)” value [1] was “significant preservative/protective effect”.

With `C[C@H](NC(=O)[C@H](C)NC(=O)[C@@H](N)CCCCNCC(F)(F)C1(O)O[C@H](CO)[C@H](O)[C@H](O)[C@H]1O)C(=O)O` (stereo partly shown) [Compound 19] the viability at 10000 µg/mL ([3]; RPMI-2650, D4 after serum deprivation) was 52 ± 4.64%, the viability at 10000 µg/mL ([3]; RPMI-2650, D6 after serum deprivation) was 26% and the “preservative/protective effect on human nasal epithelial cells (in words)” value ([3]; starvation medium, 10 mg/ml) was “preservative/protective effect”. For the same compound, the Percentage of viability [1, 8] was 73%, the Percentage of viability [1, 10] was 50% and the viability at 5000 µg/mL [1, 8] was 73 to 87%. For the same compound, the viability at 5000 µg/mL [1, 9] was 57%, the viability at 5000 µg/mL [1, 10] was 45 to 50% and the “preservative/protective effect on skin fibroblasts (in words)” value [1] was “significant preservative/protective effect”. For the same compound, the “preservative/protective effect against oxidative stress (in words)” value ([4]; 5 to 15 mg/ml) was “preservative/protective effect against oxidative stress which is dose dependant”, the viability at 5000 µg/mL ([4]; 1 h after 100 μM H2O2) was 89 ± 2.7% and the viability at 10000 µg/mL ([4]; 1 h after 100 μM H2O2) was 99 ± 0.5%. For the same compound, the viability at 15000 µg/mL ([4]; 1 h after 100 μM H2O2) was 110 ± 2%, the viability at 5000 µg/mL ([4]; 24 h after 100 μM H2O2) was 109 ± 2.2% and the viability at 10000 µg/mL ([4]; 24 h after 100 μM H2O2) was 120 ± 2.1%. The viability at 15000 µg/mL ([4]; 24 h after 100 μM H2O2) was 127 ± 5.8%, the “growth/regenerative effect on stressed cells (in words)” value ([4]; viability increased in time after H2O2) was “growth/regenerative effect” and the “preservative/protective effect against UV stress (in words)” value [5] was “preservative/protective effect against UV stress”. For the same compound, the viability at 5000 µg/mL ([5]; 1 h after irradiation) was 53%, the viability at 10000 µg/mL ([5]; 1 h after irradiation) was 70% and the viability at 15000 µg/mL ([5]; 1 h after irradiation) was 67%. The viability at 5000 µg/mL ([5]; 3 h after irradiation) was 71%, the viability at 10000 µg/mL ([5]; 3 h after irradiation) was 80% and the viability at 15000 µg/mL ([5]; 3 h after irradiation) was 80%. For the same compound, the viability at 5000 µg/mL ([5]; 24 h after irradiation) was 89%, the viability at 10000 µg/mL ([5]; 24 h after irradiation) was 116% and the viability at 15000 µg/mL ([5]; 24 h after irradiation) was 112%. The “growth or regenerative effect on stressed cells (in words)” value ([5]; viability increased in time after UV) was “growth or regenerative effect”.

For `C[C@H](NC(=O)[C@@H](N)CCCCNCC(F)(F)C1(O)O[C@H](CO)[C@H](O)[C@H](O)[C@H]1O)C(=O)O.Cl.Cl` (stereo partly shown) [Compound 22], the Percentage of viability ([1]; D4 after serum deprivation, 10 mg/mL (Table 4)) was 93% and the “preservative/protective effect on skin fibroblasts (in words)” value [1] was “significant preservative/protective effect”.
